Results from patent US6117859A, “Method of relieving chronic inflammation by using 5-alkylsulfonylsalicylanilides” (The Research Foundation of State University of New York, priority 1999, dated 2000).
“Also recorded” adds a separate entry of the source.

Tests used:
[1] = test system: TPA treated mouse ear skin; assay: Histopathology of ear biopsies after multiple doses of TPA (epidermal thickness, dermal cellularity); assay type: in vivo, mouse (female CD-1)
Procedure: The assay used female CD-1 mice (7-9 weeks of age). Following a 2-week quarantine, mice were randomly assigned to test groups (5 mice/groups). TPA (10 uL of 0.01 TPA in acetone) was administered to both the inner and outer surface of each ear (2μg/ear) on day 0,2,4,7, and 9 on protocol. On Day 7,8 and 9, two applications of test article were applied to each ear 2 and 4 hours after dosing with TPA. The test articles were administered in 10 uL aliquots to both the inner and outer surface of each ear (20 μl total/dose). The candidate drugs were tested at several different concentrations (e.g., 5, 1.25, and 0.125 mg/ear) to determine a maximum effective dose within a range that could be effectively applied. Hydrocortisone-17-valerate (HCV, 20μg/ear) was employed as a positive control. Mice were sacrificed at Day 10 on protocol and uniform punch biopsies (approximately 8 mm dia.) were taken from each ear. While on protocol, dermal irritation was scored semiquantitatively at Day 1,3,5,8, and 10.
Inhibition of TPA stimulated increased ear weight was used as an initial measure of efficacy for all of the agents tested. One biopsy from each mouse was also quick frozen and stored at -70° C. for later assay of myleoperoxidase, an enzyme associated with infiltrating PMN, or other measure of efficacy. The remaining biopsy from each mouse treated with Trifluorosal or HCV was fixed in formalin and processed for histopathologic evaluation, including measurement of cellular infiltration (PMNs, endothelial cells, macrophages) and epidermal thickness at 20 random sites along the length of the specimen.
In order to confirm the subjective observations, quantitative determinations of 3 parameters (epidermal thickness, dermal thickness, and dermal cellularity) in the skin of negative controls (acetone), positive controls (TPA), and TPA treated skin treated with 3 doses of test article (Trifluorosal) and hydrocortisone were carried out. Epidermal thickness reflects the reactive proliferative activity induced by TPA in the […]: dermal thickness reflects primarily Ad edema but may also be affected by other phenomena, such as formation of granulation tissue, collagen synthesis, the activity of myofibroblasts, etc. Cellularity of the dermis is frequently used as a surrogate marker of inflammatory changes in the dermis.
Determination of the epidermal thickness was performed under the microscope with a calibrated scale placed in the eyepiece. Ten determinations were carried out in the epidermis covering the outside of the ear using a 40× objective and a 10× eyepiece (400× total). The measurements were taken from the basal side of the basal layer (basement membrane) to the outer side of the last nucleated cell of the […]. The average of the 10 measurements expressed in microns was entered in the table.
Determination of dermal thickness was performed using a similar technique. To avoid variability caused by the difference in sizes between the base and tip of the ear, only 3 measurements were performed in the center of the sample. The measurements were performed from the basement membrane of the external and internal epithelial and therefore include, in addition to both dermis (external and internal), the cartilage.
Cellularity of the dermis was calculated by projecting a calibrated grid into the dermis and counting cells in the known area of the dermis. Areas of hair follicles or sebaceous glands were avoided. Five fields were counted and the results were adjusted to the number of cells in 1,000 square microns.
The results of individual animals were entered in the table and the averages and standard deviation were calculated using an EXCEL database. In addition, the results were also expressed as a percentage of the control (acetone treated). Furthermore, the percentage of inhibition of the test articles were calculated using the following formula: [formula]

myeloperoxidase (MPO) = assay: Myeloperoxidase (MPO) activity in ear biopsies, acute TPA mouse ear assay; assay type: in vivo
From the text: (§1) The anti-inflammatory effect of selected compounds of this invention were compared to those of Triclosan™ and hydrocortisone in a modified […] (TPA) mouse ear inflammation assay. TPA was used as an inflammogen rather than croton oil because TPA gives a well characterized inflammatory response at very low concentrations. […] This model can therefore be used to study the pharmacokinetics, clinical efficacy and adverse side effects of anti-inflammatory agents. To quantitate inflammation, ear punches from treated animals were used to measure increased ear mass (edema) and myeloperoxidase (MPO) activity. For the inhibition studies, ear biopsies were weighed six hours after treatment with TPA and the simultaneous application of the compound of the present invention. All the compounds were diluted in acetone. Following this, the biopsies were frozen and subsequently used to measure inhibition of MPO activity, an estimate of polymorphonuclear (PMN) […] activity in the affected area. Percent inhibition of edema was calculated as [c-t]/c x 100, where c and t are increases in ear weight in control and treated mice, respectively.
As a confirmation of the anti-inflammatory activity and in an attempt to further define the mechanism of inhibition produced by the alkylsulfonylsalicylanilides, MPO activity was measured in representative ear biopsies. The enzyme was extracted from the tissue by using a combination of homogenization in the presence of a detergent, freezing and thawing, and sonication. The change in absorbance was measured with time using o-dianisidine and H2 O2 as the substrate in an automated plate reader. As shown below, TPA-induced increase in MPO was inhibited in TMF-12 treated ears at a dose approximately 10-fold less than that which inhibited edema.

[2] = test system: TPA induced mouse ear edema; assay: Acute TPA mouse ear inflammation assay, edema (ear weight); assay type: in vivo
From the text: as §1
Initially a dose-response curve for TPA-induced mouse ear edema was generated in order to determine the concentration of TPA to be employed in the inhibition studies. TPA produced a theoretical dose-response curve for edema with an ED50 of 80 ng/ear and an ED90 of 200 ng/ear in two separate experiments. ED50 is the dose at which 50% of the maximum effect was observed while ED90 is the dose at which 90% of the maximum effect was observed. […] The ED50 values for the compounds tested are as follows: […]

Lipophilicity = assay type: physicochemical; details: compared with AMCF3-8
From the text: By the term "partition coefficient" as used herein for the purposes of specification and claims is meant the log10 P where P is the ratio of the molar concentrations of the compositions of the composition in octanol-water system. Partition coefficient is a measure of the lipophilic character of the compound. A partition coefficient of 4 therefore means that the ratio of the concentration of the composition in octanol to the concentration in water is 10^4 or 10,000 to 1.

## CCCCCCCCCCCCS(=O)(=O)c1ccc(O)c(C(=O)Nc2cccc(C(F)(F)F)c2)c1 [TMF-12]
[1]; 1.25 mg/ear
  % Inhibition, Dermal Cellularity: 24.6%
  % Inhibition, Epidermal Thickness: 48.0%
[1]; 2.50 mg/ear
  % Inhibition, Dermal Cellularity: 64.3%
  % Inhibition, Epidermal Thickness: 11.4%
[1]; 5.00 mg/ear
  % Inhibition, Dermal Cellularity: 47.6%
  % Inhibition, Epidermal Thickness: 30.0%
[1]; histopathology
  Blood vessel prominence (in words): Blood vessels were not as prominent
[1]; histopathology, FIG. 1
  Cellularity of the dermis (in words): reduced the epidermal thickness as well as the cellularity of the dermis
  Epidermal thickness (in words): reduced the epidermal thickness
Myeloperoxidase (MPO); TMF-12 0.8 mg/20 ml
  MPO Activity: 590.2 D OD/min
Myeloperoxidase (MPO); TMF-12 1.24 mg/20 ml
  MPO Activity: 327.3 D OD/min
Myeloperoxidase (MPO); TMF-12 8 mg/20 ml
  MPO Activity: 56.5 D OD/min
Myeloperoxidase (MPO); TMF-12 12.4 mg/20 ml
  MPO Activity: 54.8 D OD/min
Myeloperoxidase (MPO); TMF-12 80 mg/20 ml
  MPO Activity: 27.6 D OD/min
Myeloperoxidase (MPO); TMF-12 124 mg/20 ml
  MPO Activity: 21 D OD/min
Myeloperoxidase (MPO); compared with edema inhibition
  Dose inhibiting MPO increase, fold less than dose inhibiting edema: approximately 10 fold
[2]; acute assay
  ID50 edema: 18 μg/ear
  Inhibition of TPA induced mouse ear edema (in words): inhibited TPA induced mouse ear edema in a dose-dependent fashion
  Relative anti-inflammatory potency (in words): most potent of all; also recorded: more potent than AMCF3-8
[2]; acute assay, listed as Trifluorosal
  Relative anti-inflammatory potency (in words): the most potent 5-(n-alkylsulfonyl)salicylanilide in this assay
[2]; acute edema assay
  Potency relative to Salifluor: ten
Lipophilicity
  Lipophilicity relative to AMCF3-8: more lipophilic than AMCF3-8
